Where two headings read alike, the source gives them in different places. Square brackets hold non-standard residues; d marks the D form. Peptide text beside a SMILES is read from it. * marks the point of attachment. Dolaproine = CO[C@@H]([C@@H]1CCCN1)[C@@H](C)C(=O)O; Dil = CC[C@H](C)[C@H](NC)[C@@H](CC(=O)O)OC; NMe2Val = CC(C)[C@@H](C(=O)*)N(C)C; X1 = C[C@H](N)C(=O)OCCCN* A value given as a limit tells only on which side of the number the result lay.

The record followed here is patent publication US8821850B2, “Protein-polymer-drug conjugates” (Mersana Therapeutics, Inc., priority 2011, dated 2014).

Common to all, as to assay type: cell-based
In assay [1] the test system is HER2 expressing cells BT474. As to the kind of experiment: Cell viability assay (Cell Titer-Glo), BT474. The following applies: read-out: BT474 IC50.
Description: (§1) PBRM-drug polymer conjugates were evaluated for their tumor viability using Cell Titer-Glo (Promega Corp). Cells were plated in black walled 96-well plate and allowed to adhere overnight at 37° C. in a humidified atmosphere of 5% CO2. HER2 expressing cells SKBR3, BT474, NCI-N87 and cells expressing low levels of HER2-MCF7 were plated at a density of 5,000 cells per well. The next day the medium was replaced with 50 μL fresh medium and 50 μL of 2× stocks of PBRM-drug polymer conjugate, drug polymer conjugate or drug were added to appropriate wells, mixed and incubated for 72 h. Cell Titer-Glo reagent was added to the wells at room temperature and the luminescent signal was measured after 10 min using a SpectraMax M5 plate reader (Molecular Devices). Dose response curves were generated using SoftMax Pro software. IC50 values were determined from four-parameter curve fitting.
Assay [2] relates to cells expressing low levels of HER2-MCF7. As to the kind of experiment: Cell viability assay (Cell Titer-Glo), MCF7.
Description: as §1
Assay [3] relates to HER2 expressing cells NCI-N87. As to the kind of experiment: Cell viability assay (Cell Titer-Glo), NCI-N87. The following applies: read-out: N87 IC50. (In ATP-based viability assays light output follows the ATP content of the culture.)
Description: as §1
Assay [4] deals with HER2 expressing cells SKBR3. Description: Cell viability assay (Cell Titer-Glo), SKBR3.
Description: as §1
[5] abbreviates: Table XIII, 72 h, conjugates with high drug loading.
The mark [6] stands for this setting: Table XIII, 72 h, conjugates with high drug loading, read-out: MCF7 IC50.
[7] abbreviates: Table XIII, 72 h, conjugates with high drug loading, read-out: SKBR3 IC50.
The mark [8] stands for this setting: Table XII, 72 h, conjugates with PBRM MW<80 kDa, read-out: SKBR3 IC50.
The mark [9] stands for this setting: Table XII, 72 h, conjugates with PBRM MW<80 kDa, read-out: MCF7 IC50.
Where [10] appears, read: Homo sapiens, MCF7, 72 h, read-out: MCF7 IC50, Table II.

With “22 kDa PHF-BA-(AF HPA)-SS-Rituximab [Example 94, Conjugate C]”, the results for the IC50 in assay [1] (setting [5]), in assay [2] (setting [6]) and in assay [3] (setting [5]) were 2.82 nM, 4.17 nM and 5.84 nM, respectively.

With “22 kDa PHF-BA-(AF HPA-L-Alanine)-SS-Trastuzumab [Example 94, Conjugate A]”, the IC50 – broadly, the concentration that gives 50% inhibition – was 0.008 nM in assay [4] (setting [7]), 0.05 nM in assay [1] (setting [5]), 9.5 nM in assay [2] (setting [6]) and 0.12 nM in assay [3] (setting [5]).

For the compound “47 kDa PHF-BA-(AF HPA-L-Alanine)-SS-Rituximab [Example 94, Conjugate D]”, the IC50 in assay [4] (setting [7]) is 0.26 nM; in assay [1] (setting [5]) it was 1.1 nM; in assay [2] (setting [6]), 8.8 nM; in assay [3] (setting [5]), 10.9 nM.

Turning to “47 kDa PHF-BA-(AF HPA-L-Alanine)-SS-Trastuzumab [Example 94, Conjugate B]”, the IC50 in assay [4] (setting [7]) is < 0.05 nM; in assay [1] (setting [5]) it was < 0.05 nM; in assay [2] (setting [6]), 7.4 nM; in assay [3] (setting [5]) it was ~0.3 nM.

Turning to “105 kDa PHF-BA (AF HPA-L-Alanine)-SS-(Trastuzumab-Fab′) [Example 96 Conjugate A]”, the values for the 50% inhibitory concentration (IC50) in assay [4] (setting [8]) and in assay [2] (setting [9]) were 0.6 nM and > 100 nM, respectively.

Consider “156 kDa PHF-BA (AF HPA-L-Alanine)-SS-(Trastuzumab-Fab′) [Example 96 Conjugate B]”, for which the results for the IC50 in assay [4] (setting [8]) and in assay [2] (setting [9]) were 1 nM and > 100 nM, respectively.

On to `CCC1(O)C[C@H]2C[N@](CCc3c([nH]c4ccccc34)[C@@](C(=O)OC)(c3cc4c(cc3OC)N(C)C3C45CCN4CC=C[C@](CC)(C45)[C@@H](O)[C@]3(O)C(=O)NC[C@H](C)O)C2)C1` (stereo partly drawn) [Example 22, (S)-2HPV], for which the IC50 in assay [1] (Homo sapiens, BT-474, 72 h) stood at 0.41 nM; in assay [2] (setting [10]), 1.83 nM.

On to `CCC1(O)C[C@H]2C[N@](CCc3c([nH]c4ccccc34)[C@@](C(=O)OC)(c3cc4c(cc3OC)N(C)C3C45CCN4CC=C[C@](CC)(C45)[C@@H](O)[C@]3(O)C(=O)NC[C@@H](C)O)C2)C1` (stereo partly drawn) [Example 23, (R)-2HPV], for which the IC50 in assay [4] (Homo sapiens, SK-BR-3, 72 h, read-out: SKBR3 IC50, Table II) is 0.71 nM; in assay [1] (Homo sapiens, BT-474, 72 h), 0.39 nM; in assay [2] (setting [10]) it was 1.71 nM.

As to `CC[C@H](C)[C@@H]([C@@H](CC(=O)N1CCC[C@H]1[C@H](OC)[C@@H](C)C(=O)N[C@@H](Cc1ccccc1)C(=O)NCCCOC(=O)[C@H](C)N)OC)N(C)C(=O)[C@@H](NC(=O)[C@H](C(C)C)N(C)C)C(C)C` [Example 50, AF HPA-L-Alanine] (NMe2Val-V[Dil][Dolaproine]F-X1), the IC50 in assay [4] (Homo sapiens, SK-BR-3, 72 h, read-out: SKBR3 IC50, Table XIII, conjugates with high drug loading) was found to be 0.32 nM; in assay [1] (Homo sapiens, BT-474, 72 h) it was 0.85 nM; in assay [2] (Homo sapiens, MCF7, 72 h, read-out: MCF7 IC50, Table XIII, conjugates with high drug loading), 8.5 nM; in assay [2] (read-out: MCF7 IC50, Table XIII, 72 h, conjugates with high drug loading) it was 8.2 nM; in assay [3] (Homo sapiens, NCI-N87, 72 h), 1.6 nM.
